For one compound, Km results are on record in publication PMC2854178 (Biochemistry, 2010).

This assay concerns the target AFUA_6g12080 (Orf12080) module 1 C*AT (Aspergillus fumigatus, UniProt Q4WLW5). It counts as biochemical. Particulars: ATP, 10 mM MgCl2, pH 7.4, 25 °C, 5 μM enzyme (apo); off-pathway acyl-AMP release.

AFUA_6g12080 (Orf12080) module 1 C*AT, sequence (Q4WLW5 1-885): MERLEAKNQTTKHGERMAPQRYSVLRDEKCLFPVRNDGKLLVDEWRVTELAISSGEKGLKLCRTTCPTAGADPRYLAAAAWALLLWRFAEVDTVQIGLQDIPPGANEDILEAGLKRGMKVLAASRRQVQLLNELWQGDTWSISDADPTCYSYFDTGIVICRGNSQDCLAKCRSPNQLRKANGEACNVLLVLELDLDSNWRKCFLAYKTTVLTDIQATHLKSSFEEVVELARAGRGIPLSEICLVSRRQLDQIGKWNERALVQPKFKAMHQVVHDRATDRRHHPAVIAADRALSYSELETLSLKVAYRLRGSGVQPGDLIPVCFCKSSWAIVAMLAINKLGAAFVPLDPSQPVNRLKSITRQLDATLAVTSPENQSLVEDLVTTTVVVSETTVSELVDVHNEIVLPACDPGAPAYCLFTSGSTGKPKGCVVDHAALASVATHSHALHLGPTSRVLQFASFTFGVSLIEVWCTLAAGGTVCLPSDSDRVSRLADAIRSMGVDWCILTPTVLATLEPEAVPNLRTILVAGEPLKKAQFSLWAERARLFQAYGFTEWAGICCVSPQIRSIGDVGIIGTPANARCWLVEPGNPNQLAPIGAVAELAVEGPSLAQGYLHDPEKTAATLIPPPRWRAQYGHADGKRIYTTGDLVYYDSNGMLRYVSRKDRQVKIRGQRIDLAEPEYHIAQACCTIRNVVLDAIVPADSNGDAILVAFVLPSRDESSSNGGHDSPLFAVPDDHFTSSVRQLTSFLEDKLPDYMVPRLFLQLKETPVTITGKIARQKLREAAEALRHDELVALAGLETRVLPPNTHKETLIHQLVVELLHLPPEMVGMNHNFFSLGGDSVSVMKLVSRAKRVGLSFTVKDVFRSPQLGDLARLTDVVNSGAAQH

In the case of `Nc1ccccc1C(=O)O` [anthranilic acid, 2-aminobenzoic acid], the Km (in general, the substrate concentration at which the rate is half of its maximum) turned out to be 18 µM.
